Reference: ChEMBL document CHEMBL1132162, “Microanalysis of a selective potent anti-Helicobacter pylori compound in a Brazilian medicinal plant, Myroxylon peruiferum and the activity of analogues” (1999)
Converted amounts (≈) assume the structure as drawn. The source made the active and inactive calls. The calls are words filed in the database; no cut-off is given here.

Experiments:
Helicobacter pylori = assay: Anti-bacterial activity against Helicobacter pylori; assay type: functional
Bacillus subtilis = assay: Anti-microbial activity against gram-positive bacteria Bacillus subtilis at 625 ug/mL concentration; Inactive; assay type: functional, organism-based
Bacteroides fragilis = assay: Anti-microbial activity against gram-positive bacteria Bacteroides fragilis at 625 ug/mL concentration; Inactive; assay type: functional, organism-based
Candida albicans = assay: Anti-microbial activity against yeast candida albicans at 625 ug/mL concentration; Inactive; assay type: functional, organism-based
Escherichia coli = assay: Anti-microbial activity against gram-negative bacteria Escherichia coli at 625 ug/mL concentration; Inactive; assay type: functional, organism-based
Micrococcus luteus = assay: Anti-microbial activity against gram-positive bacteria Micrococcus lutea at 625 ug/mL concentration; Inactive; assay type: functional, organism-based
Pseudomonas aeruginosa = assay: Anti-microbial activity against gram-negative bacteria Pseudomonas aeruginosa at 625 ug/mL concentration; Inactive; assay type: functional, organism-based
Saccharomyces cerevisiae = assay: Anti-microbial activity against yeast Saccharomyces cerevisiae at 625 ug/mL concentration; Inactive; assay type: functional, organism-based

Structure (SMILES) | MIC (Helicobacter pylori) | other results
COc1ccc2c(=O)cc(-c3ccc(OC)c(OC)c3)oc2c1 [7,3',4'-Trimethoxyflavone] | > 20 µg/mL | –
COc1ccc2c(c1)OC=C(c1ccc(OC)c(OC)c1)[C@@H]2O | 16 µg/mL (≈ 50.9 µM) | –
O=c1c(-c2ccc(O)c(O)c2)coc2cc(O)ccc12 | > 20 µg/mL | –
COc1ccc2c(c1)OC=C(c1ccc(OC)c(OC)c1)[C@H]2O | 16 µg/mL (≈ 50.9 µM) | –
CCOc1ccc2c(=O)c(-c3ccc(OCC)c(OCC)c3)coc2c1 | 18 µg/mL (≈ 50.8 µM) | –
COc1ccc2c(=O)c(-c3ccc(OC)c(OC)c3)coc2c1 | 7.8 µg/mL (≈ 25 µM) | Activity (Bacillus subtilis): inactive; Activity (Bacteroides fragilis): inactive; Activity (Candida albicans): inactive; Activity (Escherichia coli): inactive; Activity (Micrococcus luteus): inactive; Activity (Pseudomonas aeruginosa): inactive; Activity (Saccharomyces cerevisiae): inactive
COc1ccc(C)cc1OC | > 20 µg/mL | –
COc1ccc(CC(=O)c2ccc(OC)cc2)cc1 | > 20 µg/mL | –
O=c1ccoc2ccccc12 [CHROMONE] | > 20 µg/mL | –
COc1ccc(-c2coc3cc(OC)c(OC)cc3c2=O)cc1 | > 20 µg/mL | –
COc1ccc(-c2coc3cc(OC)ccc3c2=O)cc1 | > 20 µg/mL | –
COc1ccc(-c2coc3cc(OC)cc(OC)c3c2=O)cc1 [BIOCHANIN A, DIMETHYL ETHER] | > 20 µg/mL | –
COc1ccc2c(c1)OCC(c1ccc(OC)c(OC)c1)C2=O (stereo not given) | > 20 µg/mL | –
